Assay results: ChEMBL document CHEMBL3244272, “Folate antagonists. 15. 2,3-Diamino-6-(2-naphthylsulfonyl)quinazoline and related 2,4-diamino-6-[(phenyl and naphthyl)sulfinyl and sulfonyl]quinazolines, a potent new class of antimetabolites with phenomenal antimalarial activity” (J Med Chem, 1979)
Converted amounts (≈) assume the structure as drawn. The source made the active and inactive calls. The rule behind the calls is not given here.

Experiments:
Plasmodium gallinaceum [1] = assay: Antimalarial activity against cycloguanil-resistant Plasmodium gallinaceum infected in mouse assessed as dose required to suppress parasitemia by 90% compound treated through gavage for 3 days; type: functional
Plasmodium gallinaceum [2] = assay: Antimalarial activity against cycloguanil-resistant Plasmodium gallinaceum infected in mouse assessed as dose required to suppress parasitemia by 90% compound treated through gavage for 3 days relative to parent strain; type: functional
Plasmodium falciparum [3] = assay: Antimalarial activity against chloroquine-sensitive, pyrimethamine-resistant Plasmodium falciparum Malayan Camp CH/Q infected in Aotus monkey assessed as dose required to >50% cures compound treated for 7 days; type: functional
Plasmodium falciparum [4] = assay: Antimalarial activity against chloroquine-resistant, pyrimethamine-sensitive Plasmodium falciparum Vietnam Oak Knoll in Aotus monkey assessed as dose required to >50% cures compound treated for 7 days; type: functional
Plasmodium falciparum [5] = assay: Antimalarial activity against Plasmodium falciparum Malayan Camp CH/Q infected in po once daily dosed Owl monkey assessed as curative dose compound treated for 7 days; type: functional
Plasmodium falciparum [6] = assay: Antimalarial activity against Plasmodium falciparum Vietnam Oak Knoll in po once daily dosed Owl monkey assessed as curative dose compound treated for 7 days; type: functional
Plasmodium falciparum [7] = assay: Antimalarial activity against Plasmodium falciparum Vietnam Smith in po once daily dosed Owl monkey assessed as curative dose compound treated for 7 days; type: functional
Plasmodium vivax [8] = assay: Antimalarial activity against Plasmodium vivax New Guinea Chesson in po once daily dosed Owl monkey assessed as curative dose compound treated for 7 days; type: functional
Plasmodium vivax [9] = assay: Antimalarial activity against Plasmodium vivax VietnamPalo Alto in po once daily dosed Owl monkey assessed as curative dose compound treated for 7 days; type: functional
Plasmodium falciparum [10] = assay: Antimalarial activity against Plasmodium falciparum Malayan Camp CH/Q infected in po dosed Owl monkey assessed as curative dose compound treated for 7 days in presence of 5 mg/kg sulfadiazine for 7 days; type: functional
Plasmodium falciparum [11] = assay: Antimalarial activity against Plasmodium falciparum Vietnam Oak Knoll in po dosed Owl monkey assessed as curative dose compound treated for 7 days in presence of 5 mg/kg sulfadiazine for 7 days; type: functional
Plasmodium falciparum [12] = assay: Antimalarial activity against Plasmodium falciparum Vietnam Smith in po dosed Owl monkey assessed as curative dose compound treated for 7 days in presence of 5 mg/kg sulfadiazine for 7 days; type: functional
Plasmodium vivax [13] = assay: Antimalarial activity against Plasmodium vivax VietnamPalo Alto in po dosed Owl monkey assessed as curative dose compound treated for 7 days in presence of 5 mg/kg sulfadiazine for 7 days; type: functional
Enterococcus faecalis [14] = assay: Antibacterial activity against Streptococcus faecalis MGH-2 assessed as growth inhibition; type: functional
Staphylococcus aureus [15] = assay: Antibacterial activity against Staphylococcus aureus UC-76 assessed as growth inhibition; type: functional
Staphylococcus aureus [16] = assay: Antibacterial activity against Staphylococcus aureus S18713 assessed as growth inhibition; type: functional
Pseudomonas aeruginosa = assay: Antibacterial activity against Pseudomonas aeruginosa 28 assessed as growth inhibition; type: functional
Escherichia coli = assay: Antibacterial activity against Escherichia coli Vogel assessed as growth inhibition; type: functional
Shigella sonnei = assay: Antibacterial activity against Shigella sonnei C-10 assessed as growth inhibition; type: functional
[17] = test system: Mycobacterium tuberculosis; assay: Antibacterial activity against Mycobacterium tuberculosis H37Rv assessed as growth inhibition; type: functional
Enterococcus faecalis [18] = assay: Antibacterial activity against Streptococcus faecalis assessed as growth inhibition; type: functional, organism-based
Lacticaseibacillus casei = assay: Antibacterial activity against Lactobacillus casei assessed as growth inhibition; type: functional, organism-based
[19] = Antibacterial activity against Pediococcus cerevisiae assessed as growth inhibition; type: functional
[20] = Inhibition of Plasmodium berghei dihydrofolate reductase
Plasmodium berghei [21] = assay: Antimalarial activity against trophozoite-induced Plasmodium berghei infected in sc dosed mouse assessed as minimum curative dose; type: functional
Plasmodium berghei [22] = assay: Antimalarial activity against trophozoite-induced Plasmodium berghei infected in mouse assessed as change in mean survival time at 5 mg/kg, sc single dose after 72 hrs of infection; type: functional; details: route subcutaneous
Plasmodium berghei [23] = assay: Antimalarial activity against trophozoite-induced Plasmodium berghei infected in mouse assessed as change in mean survival time at 2.5 mg/kg, sc single dose after 72 hrs of infection; type: functional; details: route subcutaneous
Plasmodium berghei [24] = assay: Antimalarial activity against trophozoite-induced Plasmodium berghei infected in mouse assessed as change in mean survival time at 1.25 mg/kg, sc single dose after 72 hrs of infection; type: functional; details: route subcutaneous
Plasmodium gallinaceum [25] = assay: Antimalarial activity against trophozoite-induced Plasmodium gallinaceum infected in chick assessed as mean survival time at 40 mg/kg, sc single dose (reference value: 4 days); type: functional; details: route subcutaneous
Plasmodium gallinaceum [26] = assay: Antimalarial activity against trophozoite-induced Plasmodium gallinaceum infected in chick assessed as mean survival time at 20 mg/kg, sc single dose (reference value: 4 days); type: functional; details: route subcutaneous
Plasmodium gallinaceum [27] = assay: Antimalarial activity against trophozoite-induced Plasmodium gallinaceum infected in chick assessed as mean survival time at 10 mg/kg, sc single dose (reference value: 4 days); type: functional; details: route subcutaneous
Plasmodium gallinaceum [28] = assay: Antimalarial activity against trophozoite-induced Plasmodium gallinaceum infected in chick assessed as mean survival time at 5 mg/kg, sc single dose (reference value: 4 days); type: functional; details: route subcutaneous
Plasmodium gallinaceum [29] = assay: Antimalarial activity against trophozoite-induced Plasmodium gallinaceum infected in chick assessed as mean survival time at 2.5 mg/kg, sc single dose (reference value: 4 days); type: functional; details: route subcutaneous
Plasmodium gallinaceum [30] = assay: Antimalarial activity against trophozoite-induced Plasmodium gallinaceum infected in chick assessed as mean survival time at 1.25 mg/kg, sc single dose (reference value: 4 days); type: functional; details: route subcutaneous
Plasmodium gallinaceum [31] = assay: Antimalarial activity against trophozoite-induced Plasmodium gallinaceum infected in chick assessed as cured at 5 mg/kg, sc single dose; type: functional, organism-based; set-up: dose 5 mg/kg
Plasmodium gallinaceum [32] = assay: Antimalarial activity against trophozoite-induced Plasmodium gallinaceum infected in chick assessed as cured at 2.5 mg/kg, sc single dose; type: functional, organism-based; set-up: dose 2.5 mg/kg
Plasmodium gallinaceum [33] = assay: Antimalarial activity against trophozoite-induced Plasmodium gallinaceum infected in chick assessed as cured at 1.25 mg/kg, sc single dose; type: functional, organism-based; set-up: dose 1.25 mg/kg
Plasmodium gallinaceum [34] = assay: Antimalarial activity against trophozoite-induced Plasmodium gallinaceum infected in chick assessed as cured at 40 mg/kg, sc single dose; type: functional, organism-based; set-up: dose 40 mg/kg
Plasmodium gallinaceum [35] = assay: Antimalarial activity against trophozoite-induced Plasmodium gallinaceum infected in chick assessed as cured at 20 mg/kg, sc single dose; type: functional, organism-based; set-up: dose 20 mg/kg
Plasmodium gallinaceum [36] = assay: Antimalarial activity against trophozoite-induced Plasmodium gallinaceum infected in chick assessed as cured at 10 mg/kg, sc single dose; type: functional, organism-based; set-up: dose 10 mg/kg
Gallus gallus [37] = assay: Toxicity in trophozoite-induced Plasmodium gallinaceum infected in chick assessed as death at 40 mg/kg, sc single dose measured within 48 hrs; type: organism-based; set-up: dose 40 mg/kg, route subcutaneous; details: chicken, in vivo
Gallus gallus [38] = assay: Toxicity in trophozoite-induced Plasmodium gallinaceum infected in chick assessed as death at 20 mg/kg, sc single dose measured within 48 hrs; type: organism-based; set-up: dose 20 mg/kg, route subcutaneous; details: chicken, in vivo
Gallus gallus [39] = assay: Toxicity in trophozoite-induced Plasmodium gallinaceum infected in chick assessed as death at 10 mg/kg, sc single dose measured within 48 hrs; type: organism-based; set-up: dose 10 mg/kg, route subcutaneous; details: chicken, in vivo
Gallus gallus [40] = assay: Toxicity in trophozoite-induced Plasmodium gallinaceum infected in chick assessed as death at 5 mg/kg, sc single dose measured within 48 hrs; type: organism-based; set-up: dose 5 mg/kg, route subcutaneous; details: chicken, in vivo
Gallus gallus [41] = assay: Toxicity in trophozoite-induced Plasmodium gallinaceum infected in chick assessed as death at 2.5 mg/kg, sc single dose measured within 48 hrs; type: organism-based; set-up: dose 2.5 mg/kg, route subcutaneous; details: chicken, in vivo
Gallus gallus [42] = assay: Toxicity in trophozoite-induced Plasmodium gallinaceum infected in chick assessed as death at 1.25 mg/kg, sc single dose measured within 48 hrs; type: organism-based; set-up: dose 1.25 mg/kg, route subcutaneous; details: chicken, in vivo
Plasmodium berghei [43] = assay: Antimalarial activity against trophozoite-induced Plasmodium berghei infected in mouse assessed as change in mean survival time at 40 mg/kg, sc single dose after 72 hrs of infection; type: functional; details: route subcutaneous
Plasmodium berghei [44] = assay: Antimalarial activity against trophozoite-induced Plasmodium berghei infected in mouse assessed as change in mean survival time at 20 mg/kg, sc single dose after 72 hrs of infection; type: functional; details: route subcutaneous
Plasmodium berghei [45] = assay: Antimalarial activity against trophozoite-induced Plasmodium berghei infected in mouse assessed as change in mean survival time at 10 mg/kg, sc single dose after 72 hrs of infection; type: functional; details: route subcutaneous
Plasmodium gallinaceum [46] = assay: Antimalarial activity against sporozoite-induced Plasmodium gallinaceum infected in chick assessed as change in cured at 240 mg/kg, sc single dose; type: functional; details: route subcutaneous
Plasmodium gallinaceum [47] = assay: Antimalarial activity against sporozoite-induced Plasmodium gallinaceum infected in chick assessed as change in cured at 120 mg/kg, sc single dose; type: functional; details: route subcutaneous
Plasmodium gallinaceum [48] = assay: Antimalarial activity against sporozoite-induced Plasmodium gallinaceum infected in chick assessed as change in cured at 60 mg/kg, sc single dose; type: functional; details: route subcutaneous
Plasmodium gallinaceum [49] = assay: Antimalarial activity against sporozoite-induced Plasmodium gallinaceum infected in chick assessed as change in cured at 30 mg/kg, sc single dose; type: functional; details: route subcutaneous
Plasmodium gallinaceum [50] = assay: Antimalarial activity against sporozoite-induced Plasmodium gallinaceum infected in chick assessed as change in cured at 15 mg/kg, sc single dose; type: functional; details: route subcutaneous
[51] = Toxicity in chloroquine-sensitive, pyrimethamine-resistant Plasmodium falciparum Malayan Camp CH/Q infected in Aotus monkey compound treated for 7 days; details: in vivo

Nc1nc(N)c2cc(S(=O)(=O)c3ccc4ccccc4c3)ccc2n1
Activity (Plasmodium gallinaceum [1]): 2.4 mg/kg
fold change (FC) (Plasmodium gallinaceum [2]): 0
Activity (Plasmodium falciparum [3]): 0.39 mg/kg
Activity (Plasmodium falciparum [4]): 0.025 mg/kg
CD90 (Plasmodium falciparum [5]): 0.39 mg/kg
CD90 (Plasmodium falciparum [6]): 0.098 mg/kg
CD90 (Plasmodium falciparum [7]): >6.25 mg/kg
CD90 (Plasmodium vivax [8]): 0.39 mg/kg
CD90 (Plasmodium vivax [9]): 6.25 mg/kg
CD90 (Plasmodium falciparum [10]): 0.025 mg/kg
CD90 (Plasmodium falciparum [11]): 0.00156 mg/kg
CD90 (Plasmodium falciparum [12]): 0.39 mg/kg
CD90 (Plasmodium vivax [13]): 0.098 mg/kg
MIC (Enterococcus faecalis [14]): > 25 µg/mL
MIC (Staphylococcus aureus [15]): 25 µg/mL (≈ 71.3 µM)
MIC (Staphylococcus aureus [16]): > 25 µg/mL
MIC (Pseudomonas aeruginosa): > 25 µg/mL
MIC (Escherichia coli): > 25 µg/mL
MIC (Shigella sonnei): > 25 µg/mL
MIC [17]: > 25 µg/mL
IC50 (Enterococcus faecalis [18]): 0.007 ng/mL (≈ 2e-05 µM)
IC50 (Lacticaseibacillus casei): 0.00014 µg/mL (≈ 0.0004 µM)
IC50 [19]: 0.00016 µg/mL (≈ 0.000457 µM)
IC50 [20]: 2.4 nM
MCD (Plasmodium berghei [21]): 20 mg/kg
MST (Plasmodium berghei [22]): 15.6 days
MST (Plasmodium berghei [23]): 12.1 days
MST (Plasmodium berghei [24]): 10.9 days
MST (Plasmodium gallinaceum [25]): 20.4 days
MST (Plasmodium gallinaceum [26]): 15 days
MST (Plasmodium gallinaceum [27]): 13 days
MST (Plasmodium gallinaceum [28]): 11.8 days
MST (Plasmodium gallinaceum [29]): 8.8 days
MST (Plasmodium gallinaceum [30]): 6 days
Activity (Plasmodium gallinaceum [31]): Active
Activity (Plasmodium gallinaceum [32]): Active
Activity (Plasmodium gallinaceum [33]): Active
Activity (Plasmodium gallinaceum [34]): Active
Activity (Plasmodium gallinaceum [35]): Active
Activity (Plasmodium gallinaceum [36]): Active
Activity (Gallus gallus [37]): Toxic
Activity (Gallus gallus [38]): Toxic
Activity (Gallus gallus [39]): Toxic
Activity (Gallus gallus [40]): Toxic
Activity (Gallus gallus [41]): Toxic
Activity (Gallus gallus [42]): Toxic

Nc1nc(N)c2cc(S(=O)(=O)c3cc(Cl)cc(Cl)c3)ccc2n1
MIC (Enterococcus faecalis [14]): 1 µg/mL (≈ 2.71 µM)
MIC (Staphylococcus aureus [15]): 2.5 µg/mL (≈ 6.77 µM)
MIC (Staphylococcus aureus [16]): 10 µg/mL (≈ 27.1 µM)
MIC (Pseudomonas aeruginosa): > 25 µg/mL
MIC (Escherichia coli): > 25 µg/mL
MIC (Shigella sonnei): > 25 µg/mL
MIC [17]: > 25 µg/mL
MCD (Plasmodium berghei [21]): 160 mg/kg
MST (Plasmodium berghei [43]): 11.3 days
MST (Plasmodium berghei [44]): 9.7 days
MST (Plasmodium berghei [45]): 6.9 days
MST (Plasmodium berghei [22]): 5.9 days
MST (Plasmodium berghei [23]): 0.7 days
MST (Plasmodium berghei [24]): 0.3 days
MST (Plasmodium gallinaceum [46]): 7 days
MST (Plasmodium gallinaceum [47]): 7 days
MST (Plasmodium gallinaceum [48]): 7 days
MST (Plasmodium gallinaceum [49]): 6.3 days
MST (Plasmodium gallinaceum [50]): 2.2 days

CCc1nc(N)nc(N)c1-c1ccc(Cl)cc1 [PYRIMETHAMINE]
Activity (Plasmodium falciparum [4]): 0.6 mg/kg
MTD at 168 h [51]: > 2.5 mg/kg
CD90 (Plasmodium falciparum [6]): 0.15 mg/kg
CD90 (Plasmodium vivax [8]): 0.625 mg/kg
MST (Plasmodium berghei [44]): 7.7 days
MST (Plasmodium berghei [45]): 6.1 days
MST (Plasmodium berghei [22]): 5.3 days
MST (Plasmodium berghei [23]): 4.7 days
MST (Plasmodium berghei [24]): 3.1 days
